Calls of active or inactive are those of the source. The calls are words filed in the database; no cut-off is given here.
Assays:
[1] = test system: Candida albicans; assay: Fungicidal activity against Candida albicans MTCC 227; format: functional, organism-based
[2] = test system: Fusarium oxysporum; assay: Antifungal activity against Fusarium oxysporum MTCC 2087 at 70 ug/ml by paper disk diffusion method; format: functional; conditions: read-out: DIZ
[3] = test system: Candida albicans; assay: Antifungal activity against Candida albicans MTCC 227 at 30 ug/ml by paper disk diffusion method; format: functional; conditions: read-out: DIZ
[4] = test system: Fusarium oxysporum; assay: Fungicidal activity against Fusarium oxysporum MTCC 2087; format: functional, organism-based
[5] = test system: Escherichia coli; assay: Antibacterial activity against Escherichia coli ATCC 8793 at 50 ug/ml after 24 hr by paper disk diffusion method; format: functional; conditions: ATCC 8793, 24 h, read-out: DIZ
[6] = test system: Aspergillus niger; assay: Antifungal activity against Aspergillus niger MTCC 3323 at 70 ug/ml by paper disk diffusion method; format: functional; conditions: read-out: DIZ
[7] = test system: Staphylococcus aureus; assay: Antibacterial activity against Staphylococcus aureus ATCC 25923 at 70 ug/ml after 24 hr by paper disk diffusion method; format: functional; conditions: ATCC 25923, 24 h, read-out: DIZ
[8] = test system: Aspergillus niger; assay: Fungicidal activity against Aspergillus niger MTCC 3323; format: functional, organism-based
[9] = test system: Escherichia coli; assay: Antibacterial activity against Escherichia coli ATCC 8793 at 70 ug/ml after 24 hr by paper disk diffusion method; format: functional; conditions: ATCC 8793, 24 h, read-out: DIZ
[10] = test system: Aspergillus niger; assay: Antifungal activity against Aspergillus niger MTCC 3323 at 50 ug/ml by paper disk diffusion method; format: functional; conditions: read-out: DIZ
[11] = test system: Escherichia coli; assay: Antibacterial activity against Escherichia coli ATCC 8793 at 30 ug/ml after 24 hr by paper disk diffusion method; format: functional; conditions: ATCC 8793, 24 h, read-out: DIZ
[12] = test system: Staphylococcus aureus; assay: Antibacterial activity against Staphylococcus aureus ATCC 25923 at 50 ug/ml after 24 hr by paper disk diffusion method; format: functional; conditions: ATCC 25923, 24 h, read-out: DIZ
[13] = test system: Pseudomonas aeruginosa; assay: Antibacterial activity against Pseudomonas aeruginosa ATCC 27853 at 70 ug/ml after 24 hr by paper disk diffusion method; format: functional; conditions: ATCC 27853, 24 h, read-out: DIZ
[14] = test system: Fusarium oxysporum; assay: Antifungal activity against Fusarium oxysporum MTCC 2087 at 50 ug/ml by paper disk diffusion method; format: functional; conditions: read-out: DIZ
[15] = test system: Bacillus subtilis; assay: Antibacterial activity against Bacillus subtilis ATCC 6633 at 30 ug/ml after 24 hr by paper disk diffusion method; format: functional; conditions: ATCC 6633, 24 h, read-out: DIZ
[16] = test system: Fusarium oxysporum; assay: Antifungal activity against Fusarium oxysporum MTCC 2087 at 30 ug/ml by paper disk diffusion method; format: functional; conditions: read-out: DIZ
[17] = test system: Bacillus subtilis; assay: Bactericidal against Bacillus subtilis ATCC 6633; format: functional, organism-based
[18] = test system: Bacillus subtilis; assay: Antibacterial activity against Bacillus subtilis ATCC 6633 at 70 ug/ml after 24 hr by paper disk diffusion method; format: functional; conditions: ATCC 6633, 24 h, read-out: DIZ
[19] = test system: Candida albicans; assay: Antifungal activity against Candida albicans MTCC 227 at 50 ug/ml by paper disk diffusion method; format: functional; conditions: read-out: DIZ
[20] = test system: Staphylococcus aureus; assay: Bactericidal activity against Staphylococcus aureus ATCC 25923; format: functional, organism-based
[21] = test system: Pseudomonas aeruginosa; assay: Antibacterial activity against Pseudomonas aeruginosa ATCC 27853 at 50 ug/ml after 24 hr by paper disk diffusion method; format: functional; conditions: ATCC 27853, 24 h, read-out: DIZ
[22] = test system: Escherichia coli; assay: Bactericidal activity against Escherichia coli ATCC 8793; format: functional, organism-based
[23] = test system: Pseudomonas aeruginosa; assay: Bactericidal activity against Pseudomonas aeruginosa ATCC 27853; format: functional, organism-based
[24] = test system: Pseudomonas aeruginosa; assay: Antibacterial activity against Pseudomonas aeruginosa ATCC 27853 at 30 ug/ml after 24 hr by paper disk diffusion method; format: functional; conditions: ATCC 27853, 24 h, read-out: DIZ
[25] = test system: Staphylococcus aureus; assay: Antibacterial activity against Staphylococcus aureus ATCC 25923 at 30 ug/ml after 24 hr by paper disk diffusion method; format: functional; conditions: ATCC 25923, 24 h, read-out: DIZ
[26] = test system: Bacillus subtilis; assay: Antibacterial activity against Bacillus subtilis ATCC 6633 at 50 ug/ml after 24 hr by paper disk diffusion method; format: functional; conditions: ATCC 6633, 24 h, read-out: DIZ
[27] = test system: Candida albicans; assay: Antifungal activity against Candida albicans MTCC 227 at 70 ug/ml by paper disk diffusion method; format: functional; conditions: read-out: DIZ
[28] = test system: Aspergillus niger; assay: Antifungal activity against Aspergillus niger MTCC 3323 at 30 ug/ml by paper disk diffusion method; format: functional; conditions: read-out: DIZ

SMILES | Activity [1] | zone of inhibition at 70 µg/mL [2] [mm] | zone of inhibition at 30 µg/mL [3] [mm] | Activity [4] | zone of inhibition at 50 µg/mL [5] [mm] | zone of inhibition at 70 µg/mL [6] [mm] | zone of inhibition at 70 µg/mL [7] [mm] | Activity [8] | zone of inhibition at 70 µg/mL [9] [mm] | zone of inhibition at 50 µg/mL [10] [mm] | zone of inhibition at 30 µg/mL [11] [mm] | zone of inhibition at 50 µg/mL [12] [mm] | zone of inhibition at 70 µg/mL [13] [mm] | zone of inhibition at 50 µg/mL [14] [mm] | zone of inhibition at 30 µg/mL [15] [mm] | zone of inhibition at 30 µg/mL [16] [mm] | Activity [17] | zone of inhibition at 70 µg/mL [18] [mm] | zone of inhibition at 50 µg/mL [19] [mm] | Activity [20] | other results
CCN(CC)CC(=O)Nn1c(S)nnc1-c1ccc(OC)cc1 | inactive | 9.06 | 8.1 | inactive | 10.1 | 11.1 | 9.36 | inactive | 11.2 | 10.2 | 9.2 | 8.33 | 10.8 | 8.21 | 7.23 | 7.26 | Active | 9.03 | 9.13 | Active | zone of inhibition at 50 µg/mL [21]: 9.56 mm; Activity [22]: Active; Activity [23]: Active; zone of inhibition at 30 µg/mL [24]: 8.26 mm; zone of inhibition at 30 µg/mL [25]: 7.63 mm; zone of inhibition at 50 µg/mL [26]: 8.53 mm; zone of inhibition at 70 µg/mL [27]: 10.4 mm; zone of inhibition at 30 µg/mL [28]: 9.13 mm
CCCCCN(CCCCC)CC(=O)Nn1c(S)nnc1-c1ccc(OC)cc1 | inactive | 8.2 | 10.1 | inactive | 9.26 | 13 | 9.16 | inactive | 10.2 | 12.2 | 8.97 | 8.13 | 8.1 | 7.21 | 6.13 | 6.17 | Active | 8.03 | 11.3 | Active | zone of inhibition at 50 µg/mL [21]: 7.13 mm; Activity [22]: Active; Activity [23]: Active; zone of inhibition at 30 µg/mL [24]: 6.23 mm; zone of inhibition at 30 µg/mL [25]: 7.2 mm; zone of inhibition at 50 µg/mL [26]: 7.26 mm; zone of inhibition at 70 µg/mL [27]: 12.2 mm; zone of inhibition at 30 µg/mL [28]: 11.2 mm
CCN(CC)CC(=O)Nn1c(S)nnc1-c1ccc(C)cc1 | inactive | 7.33 | 7.13 | inactive | 8.4 | 10.2 | 8.2 | inactive | 9 | 9.23 | 7.3 | 7.4 | 9 | 6.23 | 6.4 | 6.03 | Active | 8.26 | 8.7 | Active | zone of inhibition at 50 µg/mL [21]: 8.4 mm; Activity [22]: Active; Activity [23]: Active; zone of inhibition at 30 µg/mL [24]: 7.3 mm; zone of inhibition at 30 µg/mL [25]: 6.36 mm; zone of inhibition at 50 µg/mL [26]: 7.43 mm; zone of inhibition at 70 µg/mL [27]: 9.23 mm; zone of inhibition at 30 µg/mL [28]: 8.2 mm
CCCN(CCC)CC(=O)Nn1c(S)nnc1-c1ccc(OC)cc1 | Active | 12.2 | 12.5 | Active | 12.2 | 17 | 14.8 | Active | 14.2 | 15.2 | 11.1 | 13.2 | 14.1 | 11.1 | 10.2 | 10.2 | Active | 12.8 | 13.2 | Active | zone of inhibition at 50 µg/mL [21]: 13.2 mm; Activity [22]: Active; Activity [23]: Active; zone of inhibition at 30 µg/mL [24]: 12.2 mm; zone of inhibition at 30 µg/mL [25]: 12.7 mm; zone of inhibition at 50 µg/mL [26]: 11 mm; zone of inhibition at 70 µg/mL [27]: 15.1 mm; zone of inhibition at 30 µg/mL [28]: 14 mm
CCCCN(CCCC)CC(=O)Nn1c(S)nnc1-c1ccc(OC)cc1 | Active | 16.2 | 16.1 | Active | 15.1 | 22.4 | 17.2 | Active | 17.3 | 20.1 | 13 | 15.2 | 18.2 | 14.3 | 11.2 | 13.1 | Active | 15.2 | 18.3 | Active | zone of inhibition at 50 µg/mL [21]: 16.2 mm; Activity [22]: Active; Activity [23]: Active; zone of inhibition at 30 µg/mL [24]: 15.1 mm; zone of inhibition at 30 µg/mL [25]: 13.1 mm; zone of inhibition at 50 µg/mL [26]: 13 mm; zone of inhibition at 70 µg/mL [27]: 20.4 mm; zone of inhibition at 30 µg/mL [28]: 18.1 mm
